The target in one assay is Cathepsin D (Homo sapiens, UniProt P07339). In words: Inhibition of CatD (unknown origin) preincubated for 30 mins followed by DABCYL-Glu-Arg-Nle-Phe-Leu-Ser-Phe-Pro-EDANS substrate addition by FRET assay.
A further assay deals with Plasmepsin II (Plasmodium falciparum, UniProt P46925). The assay can be described thus: Inhibition of Plasmodium falciparum plasmepsin 2 preincubated for 30 mins followed by DABCYL-Glu-Arg-Nle-Phe-Leu-Ser-Phe-Pro-EDANS substrate addition by FRET assay.
Assay [1] can be described thus: Inhibition of Plasmodium falciparum plasmepsin 4 preincubated for 30 mins followed by DABCYL-Glu-Arg-Nle-Phe-Leu-Ser-Phe-Pro-EDANS substrate addition by FRET assay.
The target of another assay is Plasmepsin I (Plasmodium falciparum, UniProt P39898). The assay can be described thus: Inhibition of Plasmodium falciparum plasmepsin 1 preincubated for 30 mins followed by DABCYL-Glu-Arg-Nle-Phe-Leu-Ser-Phe-Pro-EDANS substrate addition by FRET assay.
For the next assay, the system named is Plasmodium falciparum. In words: Antimalarial activity against Plasmodium falciparum 3D7 after 96 hrs by SYBR Green 1 assay. Type of assay: functional, organism-based. The following applies: 3D7, 96 h.

The values below come from ChEMBL document CHEMBL3763050, “Fragment-Based Discovery of 2-Aminoquinazolin-4(3H)-ones As Novel Class Nonpeptidomimetic Inhibitors of the Plasmepsins I, II, and IV” (J Med Chem, 2016).

One may read the IC50 as the midpoint of a concentration-inhibition curve. A low value points to greater potency. One may read the EC50 as the concentration giving half of the maximal effect. Read a low EC50 as an effect from little substance.

Chain of Plasmepsin II (P46925 whole entry): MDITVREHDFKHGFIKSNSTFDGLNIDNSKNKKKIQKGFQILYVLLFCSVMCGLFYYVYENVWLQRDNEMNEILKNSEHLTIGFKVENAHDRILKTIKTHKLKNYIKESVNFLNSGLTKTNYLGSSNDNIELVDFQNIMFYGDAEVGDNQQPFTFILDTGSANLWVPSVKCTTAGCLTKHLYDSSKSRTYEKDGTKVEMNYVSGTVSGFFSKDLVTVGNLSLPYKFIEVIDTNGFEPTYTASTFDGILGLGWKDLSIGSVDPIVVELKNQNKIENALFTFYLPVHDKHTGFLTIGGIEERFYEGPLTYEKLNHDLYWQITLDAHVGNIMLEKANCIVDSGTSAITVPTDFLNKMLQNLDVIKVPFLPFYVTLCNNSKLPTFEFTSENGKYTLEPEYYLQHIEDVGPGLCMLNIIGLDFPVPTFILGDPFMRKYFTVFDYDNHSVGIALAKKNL
Chain of Cathepsin D (P07339 65-162 limits assumed): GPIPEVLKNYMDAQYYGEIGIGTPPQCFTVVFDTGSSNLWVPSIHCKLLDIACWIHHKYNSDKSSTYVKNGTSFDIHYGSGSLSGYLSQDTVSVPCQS
Chain of Cathepsin D (P07339 169-412 limits assumed): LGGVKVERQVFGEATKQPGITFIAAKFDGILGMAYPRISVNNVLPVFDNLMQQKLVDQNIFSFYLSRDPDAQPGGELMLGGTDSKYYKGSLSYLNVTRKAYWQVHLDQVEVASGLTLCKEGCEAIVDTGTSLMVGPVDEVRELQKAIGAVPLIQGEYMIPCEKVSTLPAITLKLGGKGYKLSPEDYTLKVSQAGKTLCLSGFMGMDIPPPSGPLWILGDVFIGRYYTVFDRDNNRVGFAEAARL
Chain of Plasmepsin I (P39898 whole entry): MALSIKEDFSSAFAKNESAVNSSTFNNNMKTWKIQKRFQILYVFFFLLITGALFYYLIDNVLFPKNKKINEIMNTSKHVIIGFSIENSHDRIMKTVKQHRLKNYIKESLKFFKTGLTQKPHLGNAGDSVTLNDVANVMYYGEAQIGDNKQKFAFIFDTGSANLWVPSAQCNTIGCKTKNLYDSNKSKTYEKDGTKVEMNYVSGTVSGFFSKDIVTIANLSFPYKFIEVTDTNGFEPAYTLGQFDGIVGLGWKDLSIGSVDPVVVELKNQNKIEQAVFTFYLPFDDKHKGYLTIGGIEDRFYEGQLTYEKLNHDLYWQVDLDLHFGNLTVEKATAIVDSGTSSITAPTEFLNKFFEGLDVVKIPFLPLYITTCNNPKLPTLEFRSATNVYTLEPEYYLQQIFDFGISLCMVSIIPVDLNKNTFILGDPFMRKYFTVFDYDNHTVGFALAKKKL

`Nc1nc2cc(-c3ccccc3)ccc2c(=O)n1C[C@H]1CC[C@@H](c2ccccc2)O1`: the IC50 at Cathepsin D came out at 4600 nM; against Plasmepsin II, 340 nM; in assay [1] it was 500 nM; against Plasmepsin I it was 1200 nM.
Taken in the same sequence, the figures for `Nc1nc2cc(-c3ccccc3)ccc2c(=O)n1C[C@@H]1CC[C@H](c2ccccc2)O1` were 22000 nM, 3000 nM, 2700 nM and 4600 nM.
Taken in the same sequence, the figures for `Nc1nc2cc(-c3ccccc3)ccc2c(=O)n1CC1CC(c2ccccc2)CO1` (mixture of isomers) were > 200000 nM, 12500 nM, 20000 nM and 52000 nM.
Taken in the same sequence, the figures for `Nc1nc2cc(-c3ccc(C4CCCCC4)cc3)ccc2c(=O)n1C[C@@H]1CC[C@H](c2ccccc2)O1` (racemic) were 8600 nM, 2400 nM, 800 nM and 500 nM.
In the case of `CCCCc1ccc(-c2ccc3c(=O)n(C[C@@H]4CC[C@H](c5ccccc5)O4)c(N)nc3c2)cc1` (racemic), the IC50 against Cathepsin D worked out at 2200 nM; at Plasmepsin II, 230 nM; in assay [1] it was 200 nM; against Plasmepsin I, 300 nM. For the same molecule, it took 900 nM to reach a half-maximal effect with Plasmodium falciparum (EC50).
With `Nc1nc2cc(-c3ccc(CCc4ccccc4)cc3)ccc2c(=O)n1C[C@@H]1CC[C@H](c2ccccc2)O1` (racemic), the IC50 is 220000 nM at Cathepsin D, 2000 nM against Plasmepsin II, 700 nM in assay [1] and 2000 nM against Plasmepsin I.
In the case of `Nc1nc2cc(-c3ccc(CCCCc4ccccc4)cc3)ccc2c(=O)n1C[C@@H]1CC[C@H](c2ccccc2)O1` (racemic), the IC50 came out at 91000 nM at Cathepsin D, 32000 nM against Plasmepsin II, 400 nM in assay [1] and 6500 nM against Plasmepsin I. Besides, the midpoint of the response with Plasmodium falciparum, the EC50, lay at 3900 nM.
Taken in the same sequence, the figures for `Nc1nc2cc(-c3ccc(CCCc4ccccc4)cc3)ccc2c(=O)n1C[C@@H]1CC[C@H](c2ccccc2)O1` (racemic) were 6000 nM, 10000 nM, 130 nM, 3200 nM and 1200 nM.
On to `Nc1nc2cc(-c3ccccc3)ccc2c(=O)n1CC1CCC2(CCCCC2)O1` (racemic), for which the IC50 was determined as 9000 nM against Cathepsin D, 5300 nM at Plasmepsin II, 3000 nM in assay [1] and 2000 nM on Plasmepsin I.
For `Nc1nc2cc(-c3ccc(CCCCCc4ccccc4)cc3)ccc2c(=O)n1C[C@@H]1CC[C@H](c2ccccc2)O1` (racemic), the IC50 stood at 52000 nM against Cathepsin D, 12000 nM at Plasmepsin II, 2000 nM in assay [1] and 36000 nM against Plasmepsin I.
Taken in the same sequence, the figures for `Nc1nc2cc(-c3ccccc3)ccc2c(=O)n1C[C@@H]1CC[C@H](c2ccc3ccccc3c2)O1` (racemic) were 19500 nM, 2500 nM, 1300 nM and 3700 nM.
On to `CCCCCc1ccc(-c2ccc3c(=O)n(C[C@@H]4CC[C@H](c5ccccc5)O4)c(N)nc3c2)cc1` (racemic), for which the IC50 turned out to be 5000 nM against Cathepsin D, 150 nM on Plasmepsin II, 100 nM in assay [1] and 300 nM at Plasmepsin I. This molecule returned an EC50 in the assay with Plasmodium falciparum of 1100 nM.
As for `Nc1nc2cc(-c3ccccc3)ccc2c(=O)n1C[C@@H]1CC[C@H](c2ccccc2)O1` (racemic), the concentration for half-maximal inhibition (IC50) amounted to 13800 nM against Cathepsin D, 570 nM against Plasmepsin II, 600 nM in assay [1] and 1300 nM on Plasmepsin I.
For `Nc1nc2cc(-c3ccc(CCC4CCCCC4)cc3)ccc2c(=O)n1C[C@@H]1CC[C@H](c2ccccc2)O1` (racemic), the IC50 against Cathepsin D worked out at 100000 nM; against Plasmepsin II, 10700 nM; in assay [1], 1200 nM; on Plasmepsin I, 9400 nM.
The matching figures for `CC(C)CCc1ccc(-c2ccc3c(=O)n(C[C@@H]4CC[C@H](c5ccccc5)O4)c(N)nc3c2)cc1` (racemic): > 100000 nM, 600 nM, 400 nM and 1400 nM.
The matching figures for `Nc1nc2cc(-c3ccccc3)ccc2c(=O)n1C[C@@H]1CCCO1` (racemic): 53400 nM, 2300 nM, 1300 nM and 6000 nM.
The matching figures for `Nc1nc2cc(-c3ccccc3)ccc2c(=O)n1C[C@@H]1CC[C@@H](c2ccccc2)O1` (racemic): 9000 nM, 2900 nM, 1100 nM and 2400 nM.
As to `CC(C)[C@H]1CC[C@@H](Cn2c(N)nc3cc(-c4ccccc4)ccc3c2=O)O1` (racemic), the 50% inhibitory concentration (IC50) stood at 25000 nM on Cathepsin D, 1600 nM at Plasmepsin II, 1500 nM in assay [1] and 2300 nM on Plasmepsin I.
Taken in the same sequence, the figures for `CCCCc1cccc(-c2ccc3c(=O)n(C[C@@H]4CC[C@H](c5ccccc5)O4)c(N)nc3c2)c1` (racemic) were 3000 nM, 2000 nM, 1000 nM and 800 nM.
Taken in the same sequence, the figures for `COC(=O)CCc1ccc(-c2ccc3c(=O)n(C[C@@H]4CC[C@H](c5ccccc5)O4)c(N)nc3c2)cc1` (racemic) were 1400 nM, 2600 nM, 400 nM and 270 nM.
Taken in the same sequence, the figures for `Nc1nc2cc(-c3ccc(CCC4CC4)cc3)ccc2c(=O)n1C[C@@H]1CC[C@H](c2ccccc2)O1` (racemic) were 3200 nM, 400 nM, 300 nM and 480 nM.
